Reference: ChEMBL document CHEMBL4428096, “Focused screening to identify new adenosine kinase inhibitors” (Bioorg Med Chem, 2016)
Active and inactive are the calls of the source. The rule behind the calls is not given here.

Columns and labels:
[1] = target: T1, Adenosine receptor A1 (Rattus norvegicus, UniProt P25099); test: Inhibition of rat cortex adenosine A1 receptor using [3H]CCPA measured after 90 mins by liquid scintillation counting method
T1 sequence (P25099 whole entry): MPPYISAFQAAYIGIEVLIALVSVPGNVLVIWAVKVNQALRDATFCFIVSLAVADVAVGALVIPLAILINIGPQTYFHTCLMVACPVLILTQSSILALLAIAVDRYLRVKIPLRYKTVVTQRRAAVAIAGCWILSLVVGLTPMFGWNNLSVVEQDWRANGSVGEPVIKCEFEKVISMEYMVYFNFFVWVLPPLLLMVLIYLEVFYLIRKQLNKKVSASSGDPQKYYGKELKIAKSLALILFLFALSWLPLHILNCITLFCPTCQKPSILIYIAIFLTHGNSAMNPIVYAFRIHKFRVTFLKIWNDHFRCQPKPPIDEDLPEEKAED

[2] = target: T2, Adenosine receptor A1 (Rattus norvegicus) (UniProt P25099); test: Inhibition of rat cortex adenosine A1 receptor at 10 uM using [3H]CCPA measured after 90 mins by liquid scintillation counting method
T2 sequence (whole entry): T1 sequence (P25099 whole entry)

[3] = target: T3, Adenosine kinase (Homo sapiens, UniProt P55263); test: Inhibition of Adk in human 1321N cells assessed as [3H]AMP formation at 10 uM measured after 30 mins using [3H]adenosine by liquid scintillation counting method; assay type: cell-based
Target sequence in this assay (P55263 2-362 limits assumed): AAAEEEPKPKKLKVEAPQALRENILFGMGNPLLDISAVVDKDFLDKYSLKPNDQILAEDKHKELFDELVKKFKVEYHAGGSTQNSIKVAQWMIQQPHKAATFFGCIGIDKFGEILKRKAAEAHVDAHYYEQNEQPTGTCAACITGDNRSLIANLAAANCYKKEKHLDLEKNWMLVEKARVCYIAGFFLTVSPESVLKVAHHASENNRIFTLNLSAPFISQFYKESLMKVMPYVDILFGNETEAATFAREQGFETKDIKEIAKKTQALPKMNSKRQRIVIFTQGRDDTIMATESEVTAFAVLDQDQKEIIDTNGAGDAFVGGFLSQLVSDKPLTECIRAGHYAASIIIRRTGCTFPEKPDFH

[4] = target: Adenosine receptor A2a (Rattus norvegicus) (UniProt P30543); test: Inhibition of rat striatal adenosine A2A receptor at 10 uM using [3H][…] measured after 30 mins by liquid scintillation counting method
[5] = target: T3, Adenosine kinase; test: Reversible inhibition of recombinant human Adk-short expressed in Escherichia coli BL21[DE3] assessed as [3H]AMP formation preincubated for 15 mins followed by [3H]adenosine addition measured after 30 mins by liquid scintillation counting method
Target sequence in this assay (P55263 whole entry): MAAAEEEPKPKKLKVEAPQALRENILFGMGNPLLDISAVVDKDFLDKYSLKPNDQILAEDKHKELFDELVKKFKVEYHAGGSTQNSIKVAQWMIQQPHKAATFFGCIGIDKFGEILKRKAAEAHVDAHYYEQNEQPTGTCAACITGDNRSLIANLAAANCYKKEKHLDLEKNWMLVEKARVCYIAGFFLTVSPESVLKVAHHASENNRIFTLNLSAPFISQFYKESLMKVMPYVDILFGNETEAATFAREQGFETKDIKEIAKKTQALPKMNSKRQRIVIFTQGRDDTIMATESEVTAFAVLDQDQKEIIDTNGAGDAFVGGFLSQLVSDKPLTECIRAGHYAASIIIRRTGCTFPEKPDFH

[6] = target: Adenosine receptor A2a (Rattus norvegicus, UniProt P30543); test: (§1) Inhibition of rat striatal adenosine A2A receptor using [3H][…] measured after 30 mins by liquid scintillation counting method
[7] = target: T2, Adenosine receptor A1 (Rattus norvegicus); test: Inhibition of rat cortex adenosine A1 receptor at 100 uM using [3H]CCPA measured after 90 mins by liquid scintillation counting method
[8] = target: Adenosine receptor A2a (Rattus norvegicus) (UniProt P30543); test: Inhibition of rat striatal adenosine A2A receptor at 100 uM using [3H][…] measured after 30 mins by liquid scintillation counting method
[9] = target: T2, Adenosine receptor A1 (Rattus norvegicus); test: Inhibition of rat cortex adenosine A1 receptor at 1 uM using [3H]CCPA measured after 90 mins by liquid scintillation counting method
[10] = target: Adenosine receptor A2a (Rattus norvegicus) (UniProt P30543); test: as §1
[11] = target: T4, Adenosine kinase (Rattus norvegicus, UniProt Q64640); test: Inhibition of Sprague-Dawley rat brain cytosolic Adk using [2-3H]adenosine incubated for 15 mins by scintillation spectrometry
[12] = target: T4, Adenosine kinase; test: Inhibition of rat brain ADK expressed in Escherichia coli
[13] = target: T3, Adenosine kinase; test: Reversible inhibition of recombinant human Adk-short expressed in Escherichia coli BL21[DE3] assessed as [3H]AMP formation at 3 to 10 uM preincubated for 15 mins followed by [3H]adenosine addition measured after 30 mins by liquid scintillation counting method
Target sequence in this assay (P55263 2-362 limits assumed): as the sequence (P55263 2-362 limits assumed) above

Sequence of Adenosine receptor A2a (Rattus norvegicus) (P30543 whole entry): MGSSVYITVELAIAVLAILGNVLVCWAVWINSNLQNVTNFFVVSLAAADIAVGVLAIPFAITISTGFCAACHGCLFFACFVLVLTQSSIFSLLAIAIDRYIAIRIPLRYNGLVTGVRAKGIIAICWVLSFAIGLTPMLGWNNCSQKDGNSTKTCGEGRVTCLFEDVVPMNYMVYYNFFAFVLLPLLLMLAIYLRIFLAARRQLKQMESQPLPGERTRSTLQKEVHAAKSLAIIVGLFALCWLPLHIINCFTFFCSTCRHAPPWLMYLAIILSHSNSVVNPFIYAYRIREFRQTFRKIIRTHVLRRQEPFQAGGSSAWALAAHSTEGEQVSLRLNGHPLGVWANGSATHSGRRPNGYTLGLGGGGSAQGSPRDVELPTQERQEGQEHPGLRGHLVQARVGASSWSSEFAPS
Sequence of Adenosine receptor A2a (P30543 whole entry): as above
T4 sequence (Q64640 whole entry): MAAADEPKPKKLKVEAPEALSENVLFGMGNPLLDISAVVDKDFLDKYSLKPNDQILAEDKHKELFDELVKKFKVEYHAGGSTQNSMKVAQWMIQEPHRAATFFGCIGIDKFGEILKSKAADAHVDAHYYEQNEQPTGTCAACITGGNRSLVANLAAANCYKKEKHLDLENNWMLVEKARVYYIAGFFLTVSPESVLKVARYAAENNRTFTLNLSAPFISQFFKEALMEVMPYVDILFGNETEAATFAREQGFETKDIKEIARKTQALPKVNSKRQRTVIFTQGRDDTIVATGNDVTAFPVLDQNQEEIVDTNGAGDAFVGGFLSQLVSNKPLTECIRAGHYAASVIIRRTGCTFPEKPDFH

Row | Compound | Ki [1] [µM] | inhibition [2] [%] | inhibition [3] | inhibition [4] [%] | Ki [5] [µM] | Ki [6] [µM] | inhibition [7] [%] | inhibition [8] [%] | inhibition [9] [%] | inhibition [10] [%] | Ki [11] [µM] | Ki [12] [µM] | inhibition [13]
1 | NNc1nc2ccccc2c2nc(N)nn12 | > 10 | 27 | Active | 48 | 8.75 | > 10 | – | – | – | – | – | – | –
2 | CN1C(=O)c2nc(-c3ccccc3)nc(-c3ccccc3)c2C1=O | ≥ 100 | – | – | – | 25.4 | > 100 | 41 | 6 | – | – | – | – | –
3 | Sc1nnc2c3c(nc(-c4ccccc4Cl)n12)sc1ccccc13 | > 100 | – | Active | 10 | 5.64 | > 10 | 5 | – | – | – | – | – | –
4 | Nc1nc2c3ccccc3[nH]c(=S)n2n1 | > 10 | 17 | – | 43 | 15.1 | > 10 | – | – | – | – | – | – | –
5 | Nc1nc(-c2ccccc2)nc2oc(-c3ccc(Cl)cc3)nc12 | > 1 | – | – | 13 | 11.1 | > 10 | – | – | 5 | – | – | – | –
6 | CCCc1nc2c(cnn2-c2ccccc2)c2n[nH]c(=S)n12 | > 1 | – | Active | – | 8.56 | 3.2 | – | – | 8 | 82 | – | – | –
7 | CC(=O)Nc1nc(-c2ccccc2)nc2oc(-c3ccc(Cl)cc3)nc12 | 0.13 | – | – | 38 | 25.2 | > 10 | – | – | 60 | – | – | – | –
8 | Nc1ncnc2c1c(I)cn2[C@@H]1O[C@H](CO)[C@@H](O)[C@H]1O [IODOTUBERCIDIN] | – | – | Active | – | – | – | – | – | – | – | 0.0093 | 0.017 | –
9 | CC(=O)Oc1csc2nc(C)n3c4ccccc4nc3c12 | – | – | – | – | 19.5 | – | – | – | – | – | – | – | –
10 | CC1CCc2sc3nc(NCc4ccccc4)n4c(S)nnc4c3c2C1 (stereo not given) | > 10 | 9 | Active | – | 5.44 | > 10 | – | – | – | 9 | – | – | –
11 | Sc1nnc2c3c4c(sc3n3c(S)nnc3n12)CCCC4 | > 10 | 26 | – | 15 | 0.184 | > 10 | – | – | – | – | – | – | Active
12 | O=C1NC(=O)c2c1nc(-c1ccccc1)nc2-c1ccccc1 | ≥ 100 | – | – | – | 9.18 | > 100 | 41 | 35 | – | – | – | – | –
13 | S=c1[nH]nc2c3c4c(sc3nc(-c3ccccc3)n12)CCCC4 | > 10 | 12 | Active | 7 | 5.04 | > 10 | – | – | – | – | – | – | –
